In patent publication US20050272726A1, “Novel medicaments for the treatment of respiratory diseases” (Boehringer Ingelheim International GmbH, priority 2004, published 2005):
Counter-ions that a name gives are not always drawn.

SMILES | melting point [°C]
CC(C)(Cc1ccc(F)cc1F)NCC(O)c1cc(O)cc2c1OCC(=O)N2 (centres unmarked) (as salt: hydrochloride) | 279 to 280
Cc1cc(F)ccc1CC(C)(C)NCC(O)c1cc(O)cc2c1OCC(=O)N2 (centres unmarked) (as salt: hydrochloride) [Example 9, 8-{2-[2-(4-fluoro-2-methyl-phenyl)-1,1-dimethyl-ethylamino]-1-hydroxy-ethyl}-6-hydroxy-4H-benzo[1,4]oxazin-3-one] | 278 to 280

Further lines, results first:

melting point [°C] | SMILES
235 to 238 | Cc1cc(C)cc(CC(C)(C)NCC(O)c2cc(O)cc3c2OCC(=O)N3)c1 (centres unmarked) (as salt: hydrochloride) [Example 13, 8-{2-[2-(3,5-dimethyl-phenyl)-1,1-dimethyl-ethylamino]-1-hydroxy-ethyl}-6-hydroxy-4H-benzo[1,4]oxazin-3-one]
201 to 204 | CC(C)(Cc1ccc(OCCCC(=O)O)cc1)NCC(O)c1cc(O)cc2c1OCC(=O)N2 (centres unmarked) [Example 14, 4-(4-{2-[2-hydroxy-2-(6-hydroxy-3-oxo-3,4-dihydro-2H-benzo[1,4]oxazin-8-yl)-ethylamino]-2-methyl-propyl}-phenoxy)-butyric acid]
278 to 280 | Cc1cc(CC(C)(C)NCC(O)c2cc(O)cc3c2OCC(=O)N3)ccc1F (centres unmarked) (as salt: hydrochloride) [Example 8, 8-{2-[2-(4-Fluoro-3-methyl-phenyl)-1,1-dimethyl-ethylamino]-1-hydroxy-ethyl}-6-hydroxy-4H-benzo[1,4]oxazin-3-one]
